These results are taken from publication PMC10743929, “Amphiphilic Sialic Acid Derivatives as Potential Dual-Specific Inhibitors of Influenza Hemagglutinin and Neuraminidase” (International Journal of Molecular Sciences, 2023).

“Also recorded” adds a separate entry of the source. Where two headings read alike, the source gives them in different places. Marks after values point to notes of the source that are not given here. Where only a bound is given, the exact number is not on record here.

The test system of one data set is hemagglutinin. The settings on record: cited from earlier work.
The next data set concerns viral neuraminidase. The settings on record: cited from earlier work.
The test system of another data set is influenza A strains. As to the kind of experiment: Anti-influenza activity against influenza A strains (H1N1 and H3N2) in MDCK cells. In kind it is cell-based, influenza A virus (H1N1 and H3N2 types). How it is done:
(§1) The process of CPE reduction assay for the influenza virus was described previously. The virus strains were A/Virginia/ATCC3/2009, A/PR/8 (A/H1N1), A/Victoria/361/11, A/HK/7/87 (A/H3N2), and B/Ned/537/05 (IBV). On day 0, Madin-Darby canine kidney (MDCK) cells in 96-well plates were infected with influenza virus at a multiplicity of infection (MOI) of 0.0004 plaque forming units (PFU) per cell, and that was incubated at 35 °C for 3 days. After the third day, virus-induced CPE and compound cytotoxicity were scored by microscopy, and the data were confirmed by formazan-based MTS cell viability assay (CellTiter 96® AQueous One Solution Cell Proliferation Assay from Promega, Madison, WI, USA). […] Compound cytotoxicity was expressed as the concentration of the compound causing minimal changes in cell morphology (MCC) and 50% cytotoxic concentration (CC50) based on the MTS assay.

In another data set the test system is IBV. As to the kind of experiment: CPE reduction assay, influenza B in MDCK cells. The settings on record: Influenza B virus, 72 h. In kind it is cell-based, influenza B virus (B/Ned/537/05). On the procedure: as §1
In another data set the target is H1N1 Neuraminidase (Influenza A virus, UniProt C3W5S3). As to the kind of experiment: SPR affinity toward immobilized H1N1 neuraminidase. The settings on record: PBST with 5% DMSO, 25 °C. In kind it is binding, influenza H1N1 (A/California/04/2009). How it is done:
(§2) SPR experiments were conducted using a BIAcore S200 instrument (Cytiva, Marlborough, MA, USA) employing a CM5 chip with a carboxymethyldextran surface (Cytiva, USA). Hemagglutinins (ThermoFisher Scientific, Invitrogen, Waltham, MA, USA) from influenza type H3N2 (A/Aichi/2/1968) and H1N1 (A/Puerto Rico/8/34), as well as neuraminidase (Invitrogen, USA) from H1N1 (A/California/04/2009), were immobilized on the chip surface following the standard amine coupling procedure outlined in the manufacturer’s instructions. This immobilization process was performed at a flow rate of 10 μL/min using PBST as the running buffer. The chip surface was initially activated using an N-ethyl-N-(3-dimethylaminopropyl)carbodiimide/N-hydroxysuccinimide solution. Subsequently, 50 μg/mL solutions of individual proteins in 10 mM sodium acetate, pH 5, were injected into channels 2, 3, and 4, respectively. To block any unreacted groups, all channels were treated with 1 M ethanolamine, resulting in a final response of 4500 RU for HAs and 2700 RU for neuraminidase. Channel 1 was activated and blocked in the same manner, without the injection of any protein, serving as a blank.
(§3) Tested compounds in a PBST working buffer (20 mM Na-phosphate, 150 mM NaCl, pH 7.4, 0.005% Tween 20, 5% DMSO) were injected into the chip at a flow rate of 30 μL/min at 25 °C. The injection duration was 3 min, followed by a 10 min buffer flow to facilitate spontaneous dissociation. Each compound was injected as a two-fold dilution series within a concentration range of 0.78–800 μM (2.44–2500 μM for sialic acid). After each compound concentration series, five buffer injections were performed to ensure complete dissociation. To determine the apparent KD toward the immobilized proteins, the steady-state responses of the blank-subtracted curves from each replicate were fitted using a single-site binding model.
(§4) For all experiments, the final KD(app) and Rmax values, along with their standard deviations, were obtained through statistical analysis based on three replicates.

In another data set the target is H1N1 Hemagglutinin (Influenza A virus, UniProt P03452). As to the kind of experiment: SPR affinity toward immobilized H1N1 hemagglutinin. In kind it is binding, influenza type H1N1 (A/Puerto Rico/8/34). The settings on record: for Kd: KD(app). How it is done: as §2, §3
Sequence of H1N1 Hemagglutinin (P03452 18-565): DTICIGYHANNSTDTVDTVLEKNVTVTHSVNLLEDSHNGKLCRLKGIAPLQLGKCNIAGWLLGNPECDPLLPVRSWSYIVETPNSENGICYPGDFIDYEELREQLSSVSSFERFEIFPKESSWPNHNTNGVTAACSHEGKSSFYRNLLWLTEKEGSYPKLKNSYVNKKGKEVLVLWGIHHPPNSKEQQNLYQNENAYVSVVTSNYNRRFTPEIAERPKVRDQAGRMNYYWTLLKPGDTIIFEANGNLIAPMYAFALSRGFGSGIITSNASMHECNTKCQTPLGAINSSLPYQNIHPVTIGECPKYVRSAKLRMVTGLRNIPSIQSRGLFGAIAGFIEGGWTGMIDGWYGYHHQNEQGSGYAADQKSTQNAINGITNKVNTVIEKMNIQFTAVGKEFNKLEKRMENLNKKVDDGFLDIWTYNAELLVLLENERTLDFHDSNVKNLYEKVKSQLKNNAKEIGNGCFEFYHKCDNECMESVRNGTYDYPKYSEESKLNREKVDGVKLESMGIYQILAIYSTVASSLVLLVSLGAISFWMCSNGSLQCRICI
(§5) In experiments conducted in a DMSO-free buffer (20 mM Na-phosphate, 150 mM NaCl, pH 7.4, 0.005% Tween 20), each replicate was followed by a two-fold dilution series of DMSO, matching the DMSO concentration in the compound solutions. In this case, the steady-state response of the blank-subtracted curve was corrected by the corresponding blank-subtracted DMSO steady-state response. The final values from each replicate were fitted using a single-site binding model using Origin 7 (OriginLab Corporation, Northampton, MA, USA).
as §4

The nature of the next data set: in vitro. To be noted: dog.
The next data set concerns IAV (A/H1N1). As to the kind of experiment: CPE reduction assay, influenza A/H1N1 in MDCK cells. The data set is classed as cell-based, influenza A virus A/H1N1 (A/Virginia/ATCC3/2009 or A/PR/8). To be noted: Influenza A virus, H1N1, 72 h. How it is done:
as §1

In data set [1] the test system is Madin-Darby canine kidney (MDCK) cells. The settings on record: dog, 3 days.
The next data set addresses H3N2 Hemagglutinin (Influenza A virus, UniProt P03437). As to the kind of experiment: SPR affinity toward immobilized H3N2 hemagglutinin. The settings on record: for Kd: KD(app). The data set is classed as binding, influenza type H3N2 (A/Aichi/2/1968). On the procedure: as §2, §3, §5, §4
Another data set concerns IAV (A/H3N2). As to the kind of experiment: CPE reduction assay, influenza A/H3N2 in MDCK cells. In kind it is cell-based, influenza A virus A/H3N2 (A/Victoria/361/11 or A/HK/7/87). To be noted: Influenza A virus, H3N2, 72 h. How it is done:
as §1

Data set [2] can be described thus: Dynamic light scattering of aggregates. To be noted: RSD of 3 measurements in brackets.
Data set [3] has as its system Madin-Darby canine kidney (MDCK) cells. As to the kind of experiment: Compound cytotoxicity in MDCK cells (microscopy, MTS). To be noted: microscopically visible alterations in cell morphology.
[4] abbreviates: MTS cell viability assay, day 3, read-out: Antiviral EC50, IBV, MTS.
The mark [5] stands for this setting: microscopic scoring of cytopathic effect, day 3, read-out: Antiviral EC50, IBV, CPE.
Setting [6] is: MTS cell viability assay, day 3, read-out: Antiviral EC50, IAV (A/H1N1), MTS.
The mark [7] stands for this setting: microscopic scoring of cytopathic effect, day 3, read-out: Antiviral EC50, IAV (A/H1N1), CPE.
The mark [8] stands for this setting: MTS cell viability assay, day 3, read-out: Antiviral EC50, IAV (A/H3N2), MTS.
The mark [9] stands for this setting: microscopic scoring of cytopathic effect, day 3, read-out: Antiviral EC50, IAV (A/H3N2), CPE.

As to `CC(=O)NC1C(OC(=O)CNS(=O)(=O)c2cccc3c(N(C)C)cccc23)CC(OCCCCCCC(=O)NCc2cccc3ccccc23)(C(=O)O)OC1C(O)C(O)CO` (stereo not shown) [Compound 2], the “affinity for hemagglutinin (in words)” value with hemagglutinin is recorded as “high affinity”. For the same compound, the “substrate for viral neuraminidase (in words)” value with viral neuraminidase is “not a substrate”.
Turning to `CCCCCCCCOC1C(OC)OC(COCCOCCOCCOCCn2cc(CSC3(C(=O)O)CC(O)C(NC(C)=O)C(C(O)C(O)CO)O3)nn2)C(OCc2ccc(OC)cc2)C1OCCCCCCCC` (stereo not shown) [Compound 12b], in the data set on influenza A strains (MDCK cells, H1N1 and H3N2), the “activity against influenza A strains (in words)” value is “effective; also recorded: moderate effect”. Further, in the data set with influenza A strains (both determined by MTS assay, at best), the “ratio of CC50 to EC50 (selectivity)” value is listed as not above 4 factor. For the same compound, the EC50 in the data set on IBV (setting [4]) is more than 100 µM; in the data set with IBV (setting [5]) it was more than 100 µM; with IAV (A/H1N1) (setting [6]), 15 ± 5 µM; with IAV (A/H1N1) (setting [7]) it was 8.9 µM; in the data set with IAV (A/H3N2) (setting [8]), 8.7 ± 3.6 µM; in the data set with IAV (A/H3N2) (setting [9]), 8.9 µM. The “Rmax, H1N1 Neuraminidase” value at H1N1 Neuraminidase stood at 175 ± 23 RU. Besides, the “Rmax, H1N1 hemagglutinin, absence of DMSO” value on H1N1 Hemagglutinin (DMSO-free running buffer) stood at 305 ± 30 RU. Also, the Kd worked out at 161 ± 20 µM at H1N1 Hemagglutinin (H1N1 Hemagglutinin, PBST with 5% DMSO, 25 °C, steady-state single-site fit); 187 ± 41 µM on H1N1 Hemagglutinin (H1N1 hemagglutinin, absence of DMSO, DMSO-free running buffer); 124 ± 21 µM on H3N2 Hemagglutinin (H3N2 Hemagglutinin, PBST with 5% DMSO, 25 °C, steady-state single-site fit); 279 ± 98 µM at H3N2 Hemagglutinin (H3N2 hemagglutinin, absence of DMSO, DMSO-free running buffer). For the same compound, the “Rmax, H1N1 Hemagglutinin” value on H1N1 Hemagglutinin (PBST with 5% DMSO, 25 °C) was found to be 130 ± 12 RU. The CC50 in “in vitro” came out at 34 ± 13 µM. Also, the “Cytotoxicity MCC (minimum cytotoxic concentration)” value in data set [1] turned out to be 39 ± 20 µM. For the same compound, the “Rmax, H3N2 hemagglutinin, absence of DMSO” value at H3N2 Hemagglutinin (DMSO-free running buffer) was found to be 454 ± 39 RU. The “Rmax, H3N2 Hemagglutinin” value on H3N2 Hemagglutinin (PBST with 5% DMSO, 25 °C) is on record as 135 ± 11 RU. Moreover, the “d (average diameter of particles, DLS)” value in [2] (0.1 mg/mL (diluted with water), 25 °C) is listed as 108 (13.4%) ^a nm; in [2] (1 mg/mL in water/DMSO 9:1, 25 °C) it was 96 (1.19%) ^a nm.
Take `CC(=O)N[C@H]1[C@H]([C@H](O)[C@H](O)CO)OC(C(=O)O)=C[C@@H]1N=C(N)N` [Zanamivir, reference compound]: the EC50 stood at 4.5 µM with IBV (setting [4]); 2.1 µM in the data set on IBV (setting [5]); 8.5 ± 3.4 µM in the data set with IAV (A/H1N1) (setting [6]); 10 ± 3 µM with IAV (A/H1N1) (setting [7]); 1 µM in the data set with IAV (A/H3N2) (setting [8]); 1.6 µM with IAV (A/H3N2) (setting [9]). Besides, the “Cytotoxicity MCC (minimum cytotoxic concentration)” value in [3] is reported as more than 100 µM. For the same compound, the CC50 in the data set “in vitro” was more than 100 µM.
